# Assay results from publication PMC11251039, “Harnessing cholesterol uptake of malaria parasites for therapeutic applications” (EMBO Molecular Medicine, 2024).
# Where “and” joins values, the source holds several entries; their conditions need not be identical. Equal entries are not always repeated.
# Columns and labels:
# [1] = tested on: P. berghei liver stages; assay: Plasmodium berghei liver stage growth inhibition assay (luminescence, in Huh7 cells); conditions: for Figure 3E dose-response value (replicates) / P. berghei liver stage growth, dose-response data points (Figure 3A): listed as BC5B; for P. berghei liver stage growth, dose-response data points (Figure 3A): replicate data points
# [2] = tested on: P. falciparum stage III–IV gametocytes; assay: P. falciparum gametocyte viability assay (MitoTracker, flow cytometry), stage III-IV; assay type: cell-based, Plasmodium falciparum; conditions: 48 h; for Gametocyte stage III-IV viability, percentage of control: replicate values, source data Fig. 2C, listed as BC5B
# Method: Gametocyte assays commenced seven days (stage III–IV) or ten days (stage V) post-invasion. […]
# Plasmodium falciparum Gametocyte Viability Assays:
# Asexual P. falciparum parasites were induced to form gametocytes as described (21).
# Synchronized trophozoite-stage parasites at 2% parasitaemia were incubated overnight and […]
# haematocrit maintained at 4%. On the subsequent day (designated as day 0) of gametocytogenesis, the culture containing early ring-stage parasites was first purified by sorbitol synchronisation to remove asynchronous trophozoites, and passed through a magnetic field in a sterile MACS® column in a SuperMACSTM II magnet to remove remaining late-stage parasites or later-stage gametocytes (negative selection). The culture medium was supplemented with 50 mM N-acetyl-D-glucosamine to inhibit asexual parasite proliferation, and changed daily. Sorbitol treatment was performed on Day 1, 5, and 6 to further remove asexual parasites. Gametocytes were magnetically enriched (positive selection) in a sterile column with a SuperMACSTM II magnet and eluted in culture media with 50 mM N-acetyl-D-glucosamine. These gametocytes were incubated overnight at 37 °C under microaerophilic conditions, and purity was assessed by examination under a light microscope (400× […]
# Gametocyte viability was assessed as described by Ridgway et al. (21) with modifications.
# Compounds or solvent controls (DMSO) were serially diluted across 96-well plates in culture media supplemented with 50 mM N-acetyl-D-glucosamine. Culture media without compound was used as a negative control. […]
# control to determine background gametocyte fluorescence. Stage III-IV gametocytes (Day 7) or stage V (day 10) gametocytes were concentrated and added to the plate with 200 µL per well. The plate was incubated for 48 hours at 37 °C under humid microaerophilic conditions.
# Parasites were then stained with 500 nM MitoTrackerTM Deep Red FM and 5 μg/ml Hoechst […]
# cytometer as described above. […]
# excluded. Live (positive) and dead (negative) gametocytes were differentiated by […]
# percentage of each was calculated. […]
smiles,measurement,setting,value
COc1cc(NC(C)CCCNC(=O)CCC(=O)O[C@H]2CC[C@H]3[C@@H]4CC=C5C[C@@H](O)CC[C@]5(C)[C@H]4CC[C@]23C)c2ncccc2c1 (stereo partly shown) [C-17-PQ],Figure 3E dose-response value (replicates),[1]; 4.650000000 uM,7.681 and 6.67 and 6.188 and 47.84 and 67.52 and 65.25 and 8.114 and 8.015 and 9.768 and 28.34 and 27.7 and 22
same,Figure 3E dose-response value (replicates),[1]; 9.300000000 uM,1.871 and 0.7826 and 2.182 and 4.713 and 13.07 and 10.27 and 2.653 and 3.064 and 2.474 and 6.135 and 6.853 and 6.628
same,"P. berghei liver stage growth, dose-response data points (Figure 3A)",[1]; 11.111111100 uM,-2.582 (2×) and -3.614 and -0.0869 and 0.1086 and 0.4997 and 0.5678 and 0.4676 and 0.7682
same,Figure 3E dose-response value (replicates),[1]; 18.600000000 uM,1.555 and 0.8085 and 1.399 and 1.289 and 0.3453 and 0.9092 and 0.9717 and 1.016 and 1.705 and 1.904 and 2.379 and 2.285
same,"P. berghei liver stage growth, dose-response data points (Figure 3A)",[1]; 33.333333300 uM,-2.582 and -1.549 and -0.5164 and -0.02173 and 0.3041 (2×) and 0.3674 (2×) and 0.9686
same,Figure 3E dose-response value (replicates),[1]; 37.200000000 uM,2.576 and 1.923 and 1.736 and -0.9169 and -0.5313 and 0.3203 and 0.31 and 1.213 and 0.6856 and 1.324 and 1.043 and 1.236
same,"P. berghei liver stage growth, dose-response data points (Figure 3A)",[1]; 100.000000000 uM,0.5164 and -1.549 and 1.549 and 0.04345 and 0.4997 and 0.1086 and 0.5678 (2×) and 0.668
same,Fold reduction in IC50 compared to primaquine alone,[1]; 48 h,~ 15 fold
same,IC50,"[1]; Plasmodium berghei, Huh-7, 48 h, read-out: IC50, P. berghei liver stage growth inhibition",0.2 µM
same,"Gametocyte stage III-IV viability, percentage of control","[2]; 0.390625000 uM, 0.390625 µM",106.6% and 106.4% and 106.3% and 105.9% and 97.84% and 98.56% and 99.18% and 96.09% and 94.81% and 99.34% and 96.51%
same,"Gametocyte stage III-IV viability, percentage of control","[2]; 0.781250000 uM, 0.78125 µM",105.6% and 103.6% (2×) and 99.85% and 95.38% and 98.97% and 96.71% and 98.76% and 95.09% and 98.49% and 100.2%
same,"Gametocyte stage III-IV viability, percentage of control","[2]; 1.562500000 uM, 1.5625 µM",98.2% and 92.41% and 99.85% and 96.05% and 86.9% and 96.5% and 96.91% and 95.26% and 86.31% and 88.01% and 87.16%
same,"Gametocyte stage III-IV viability, percentage of control","[2]; 3.125000000 uM, 3.125 µM",76.23% and 73.04% and 83.77% and 78.85% and 72.15% and 82.91% and 79.82% and 79.41% and 67.61% and 67.33% and 65.91%
same,"Gametocyte stage III-IV viability, percentage of control","[2]; 6.250000000 uM, 6.25 µM",47.47% and 48.87% and 53.06% and 57.19% and 51.38% and 37.08% and 52.02% and 49.97% and 47.91% and 50.9% (2×) and 52.03%
same,"Gametocyte stage III-IV viability, percentage of control","[2]; 12.500000000 uM, 12.5 µM",32.49% and 39.99% and 32.61% and 29.26% and 32.88% and 27.73% and 25.88% and 43.81%
same,"Gametocyte stage III-IV viability, percentage of control",[2]; 25.000000000 uM,17.71% and 16.11% and 15.11% and 33.28% and 21.89% and 14.3% and 17.64% and 12.08% and 12.7% and 13.79% and 6.704% and 7.271%
same,"Gametocyte stage III-IV viability, percentage of control",[2]; 50.000000000 uM,5.639% and 8.492% and 6.658% and 16.42% and 3.442% and -2.383% and -3.188% and -11.09% and -14.21% and 3.059% and -3.824% and -12.14%
same,"Gametocyte stage III-IV viability, percentage of control",[2]; 100.000000000 uM,3.289% and 0.9211% and -0.4605% and 9.774% and -7.24% and -17.63% and -19.17% and -25.26% and -26.31% and -15.93% and -26.87% and -31.48%
same,Fold reduction in IC50 compared to primaquine alone,[2],9 fold
same,viability at 0.390625 µM,"[2]; Plasmodium falciparum, read-out: Gametocyte stage III-IV viability, percentage of control, 0.390625000 uM, 48 h, replicate values, source data Fig. 2C",105%
same,viability at 0.78125 µM,"[2]; Plasmodium falciparum, read-out: Gametocyte stage III-IV viability, percentage of control, 0.781250000 uM, 48 h, replicate values, source data Fig. 2C",101%
same,viability at 1.5625 µM,"[2]; Plasmodium falciparum, read-out: Gametocyte stage III-IV viability, percentage of control, 1.562500000 uM, 48 h, replicate values, source data Fig. 2C",95%
same,viability at 3.125 µM,"[2]; Plasmodium falciparum, read-out: Gametocyte stage III-IV viability, percentage of control, 3.125000000 uM, 48 h, replicate values, source data Fig. 2C",72.4%
same,viability at 12.5 µM,"[2]; Plasmodium falciparum, read-out: Gametocyte stage III-IV viability, percentage of control, 12.500000000 uM, 48 h, replicate values, source data Fig. 2C",31.7%
same,IC50,"[2]; Plasmodium falciparum, read-out: IC50, P. falciparum gametocyte stage III-IV inhibition, 48 h",7.1 µM
